# Results as given in patent US9546138B2, “Pyridone derivatives and uses thereof in the treatment of tuberculosis” (priority 2012, dated 2017).
# Key:
# [1] = tested on: Mtb H37Rv resistant mutant 529-10X-108-B6; assay type: cell-based, Mycobacterium tuberculosis
# [2] = tested on: Mtb H37Rv resistant mutant 529-5X-108-B4 (inhA G96V); assay type: cell-based, Mycobacterium tuberculosis
# [3] = tested on: Mtb H37Rv resistant mutant 529-5X-108-S1 (inhA D148G); assay type: cell-based, Mycobacterium tuberculosis
# [4] = tested on: Mtb H37Rv resistant mutant 529-10X-107-B8 (inhA D148E); assay type: cell-based, Mycobacterium tuberculosis
# [5] = tested on: Mtb H37Rv resistant mutant 529-5X-108-B2 (inhA S94A); assay type: cell-based, Mycobacterium tuberculosis
# [6] = tested on: BCG-916-108-25X-B1 (InhA M161I); assay type: cell-based, M bovis BCG
# [7] = tested on: BCG-529-108-10X-2 (InhA M161V); assay type: cell-based, M bovis BCG
# [8] = tested on: Mtb H37Rv resistant mutant 529-5X-108-S3 (inhA D148G); assay type: cell-based, Mycobacterium tuberculosis
Structure (SMILES),Compound MIC50 [1],Compound MIC50 [2],Compound MIC50 [3],Compound MIC50 [4],Compound MIC50 [5],Compound MIC50 [6],Compound MIC50 [7],Compound MIC50 [8]
"CCc1cc(C(N)=S)ccn1 [Ethionamide, reference compound]",1.41 µM,1.32 µM,1.53 µM,1.91 µM,9.74 µM,>60 µM,>60 µM,–
"NNC(=O)c1ccncc1 [Isoniazid, isoniazid, reference compound]",0.11 µM,0.09 µM,0.15 µM,0.31 µM,0.86 µM,1.48 µM,1.27 µM,0.15 µM
"O=c1[nH]c(CC2CCCCC2)cc(O)c1-c1ccccc1 [PD2, 6-(cyclohexylmethyl)-4-hydroxy-3-phenylpyridin-2(1H)-one]",>40 µM,14.60 µM,1.46 µM,>40 µM,4.04 µM,–,–,1.73 µM
"CC1(C)CCC(Cc2cc(O)c(-c3ccccc3)c(=O)[nH]2)CC1 [PD10, 6-((4,4-dimethylcyclohexyl)methyl)-4-hydroxy-3-phenylpyridin-2(1H)-one]",>5.0 µM,>5.0 µM,0.29 µM,>5.0 µM,0.78 µM,3.2 µM,3.02 µM,0.38 µM
"CC(C)Cc1cc(O)c(-c2ccccc2)c(=O)[nH]1 [PD12, 4-hydroxy-6-isobutyl-3-phenylpyridin-2(1H)-one]",>40 µM,>40 µM,>40 µM,>40 µM,>40 µM,21.52 µM,27.88 µM,>40 µM
